Measurements reported in PubChem BioAssay AID240 (DTP/NCI, 2004).
Several values for one entry are separate records, joined by “and”; a condition that tells them apart may be missing. Equal values may be shown once. Inconclusive results and toxic doses are left out.

Test system: Lymphoma 4 ip in BDF1 mice, median survival
Test: NCI In Vivo Anticancer Drug Screen. Data for tumor model Lymphoma 4 (intraperitoneal) in B6D2F1 (BDF1) mice
Conditions: endpoint: median survival time, schedule: Q01DX010 (ip), higher = longer survival
Description: The antitumor activity of compounds was measured in mice bearing transplantable tumors. Survival or tumor size were measured and the results are expressed as the measurement made in the treated group (T) divided by the measurement made in the vehicle treated control group (C). The tumor model used in this assay is Lymphoma 4 (intraperitoneal) in B6D2F1 (BDF1) mice

[1] = dose: 0.5 mg/kg/injection, vehicle: saline
[2] = dose: 5.0 mg/kg/injection, vehicle: saline
[3] = dose: 10.0 mg/kg/injection, vehicle: saline
[4] = dose: 20.0 mg/kg/injection, vehicle: saline
[5] = dose: 40.0 mg/kg/injection, vehicle: saline
[6] = dose: 62.5 mg/kg/injection, vehicle: saline
[7] = dose: 125.0 mg/kg/injection, vehicle: saline
[8] = dose: 4.0 mg/kg/injection, vehicle: saline
[9] = dose: 8.0 mg/kg/injection, vehicle: saline
[10] = dose: 16.0 mg/kg/injection, vehicle: saline
[11] = dose: 37.5 mg/kg/injection, vehicle: saline
[12] = dose: 75.0 mg/kg/injection, vehicle: saline
[13] = dose: 150.0 mg/kg/injection, vehicle: saline
[14] = dose: 31.3 mg/kg/injection, vehicle: saline
[15] = dose: 1.25 mg/kg/injection, vehicle: saline
[16] = dose: 2.0 mg/kg/injection, vehicle: saline

CS(=O)(=O)OCCN(CCOS(C)(=O)=O)c1ccc(N=O)cc1
T/C [1]: 123 % of control

Nc1nc(N)c2nc(CNc3ccc(C(=O)NC(CCC(=O)O)C(=O)O)cc3)cnc2n1 (stereo unspecified)
T/C (dose: 0.05 mg/kg/injection, vehicle: other): 96 % of control and 110 % of control | T/C (dose: 0.1 mg/kg/injection, vehicle: other): 110 % of control and 114 % of control | T/C (dose: 0.2 mg/kg/injection, vehicle: other): 116 % of control and 117 % of control

C[C@@H]1C[C@@H]([C@H](O)CC2CC(=O)NC(=O)C2)C(=O)[C@@H](C)C1
T/C [2]: 96 % of control and 105 % of control | T/C [3]: 93 % of control and 117 % of control | T/C [4]: 117 % of control and 121 % of control | T/C [5]: 108 % of control

OCC1OC(n2cnc3c(Cl)ncnc32)C(O)C1O (stereo unspecified)
T/C [6]: 100 % of control and 103 % of control | T/C [7]: 94 % of control and 103 % of control | T/C (dose: 250.0 mg/kg/injection, vehicle: saline): 94 % of control and 106 % of control | T/C (dose: 500.0 mg/kg/injection, vehicle: saline): 94 % of control and 100 % of control

CN(C)c1ccc(/C=C/c2ccnc3ccccc23)cc1
T/C [8]: 93 % of control and 103 % of control | T/C [9]: 96 % of control and 100 % of control | T/C [10]: 93 % of control and 100 % of control

CO[C@@H]1[C@@H](OC2OC(C)C(OC3CC(C)(O)C(OC(=O)CC(C)C)C(C)O3)C(N(C)C)C2O)[C@@H](CC=O)C[C@@H](C)C(=O)/C=C/C2O[C@H]2C[C@@H](C)OC(=O)C[C@H]1OC(C)=O (stereo partly specified)
T/C [11]: 100 % of control and 107 % of control | T/C [12]: 100 % of control and 111 % of control | T/C [13]: 100 % of control and 118 % of control | T/C (dose: 300.0 mg/kg/injection, vehicle: saline): 100 % of control and 111 % of control

S=P(N1CC1)(N1CC1)N1CC1
T/C (dose: 0.05 mg/kg/injection, vehicle: saline): 106 % of control | T/C (dose: 0.75 mg/kg/injection, vehicle: saline): 110 % of control | T/C (dose: 1.5 mg/kg/injection, vehicle: saline): 117 % of control and 123 % of control | T/C (dose: 6.0 mg/kg/injection, vehicle: saline): 114 % of control

CCCCNc1ncnc2c1cnn2C
T/C (dose: 15.6 mg/kg/injection, vehicle: saline): 103 % of control and 108 % of control | T/C [14]: 102 % of control and 103 % of control | T/C [6]: 100 % of control and 123 % of control

O=C(Nc1ccc(C2=NCCN2)cc1)c1cccc(C(=O)Nc2ccc(C3=NCCN3)cc2)c1
T/C [9]: 113 % of control and 121 % of control | T/C [10]: 120 % of control | T/C (dose: 32.0 mg/kg/injection, vehicle: saline): 170 % of control and 189 % of control | T/C (dose: 64.0 mg/kg/injection, vehicle: saline): 235 % of control

O=C(O)c1[nH]c(=O)[nH]c(=O)c1F
T/C [15]: 120 % of control | T/C [2]: 163 % of control and 175 % of control | T/C [3]: 96 % of control

CCCSc1ncnc2nc[nH]c12
T/C [14]: 93 % of control and 96 % of control | T/C [7]: 93 % of control and 96 % of control

CC1CN1P(=S)(N1CC1C)N1CC1C (stereo unspecified)
T/C [15]: 103 % of control | T/C (dose: 2.5 mg/kg/injection, vehicle: saline): 93 % of control and 115 % of control | T/C [2]: 100 % of control and 111 % of control | T/C [3]: 111 % of control and 120 % of control | T/C [4]: 115 % of control

O=c1[nH]c(=O)n(C2CC(O)C(CO)O2)cc1F (stereo unspecified)
T/C [3]: 103 % of control | T/C [4]: 116 % of control and 123 % of control | T/C [5]: 119 % of control

COCCCNP(=S)(N1CC1)N1CC1
T/C [1]: 93 % of control | T/C (dose: 1.0 mg/kg/injection, vehicle: saline): 100 % of control | T/C [16]: 113 % of control | T/C [8]: 116 % of control

Cc1cc(N(CCCl)CCCl)ccc1N=Nc1ccccc1C(=O)O
T/C [3]: 171 % of control | T/C [4]: 150 % of control and 166 % of control

CN(C)c1nc(N(C)C)nc(N(C)C)n1
T/C (dose: 18.8 mg/kg/injection, vehicle: saline): 96 % of control and 100 % of control | T/C [11]: 100 % of control | T/C [12]: 100 % of control | T/C [13]: 100 % of control and 103 % of control

CN(C)/N=N/c1nc[nH]c1C(N)=O
T/C (dose: 25.0 mg/kg/injection, vehicle: saline): 114 % of control | T/C (dose: 50.0 mg/kg/injection, vehicle: saline): 114 % of control | T/C (dose: 200.0 mg/kg/injection, vehicle: saline): 114 % of control

O=C(Nc1ccc(NC2=NCCN2)cc1)c1ccc(C(=O)Nc2ccc(NC3=NCCN3)cc2)cc1
T/C [16]: 113 % of control and 121 % of control | T/C [9]: 207 % of control | T/C [10]: 96 % of control

Nc1nc(SCc2ccccc2)c2[nH]cnc2n1
T/C [9]: 96 % of control and 100 % of control | T/C [10]: 96 % of control and 100 % of control
